Columns and labels:
[1] = xn = mol fraction of the nth substance listed; details: 101.33 kPa, Liquid
[2] = refractive index (Na D-line) (dimensionless); xn = mol fraction of the nth substance listed; details: 101.33 kPa, Liquid

ClC(Cl)=C(Cl)Cl [tetrachloroethene] + CCCCN(CCCC)CCCC
x2 = 0
Details | mass density, 298.15 K [kg/m3] | mass density, 303.15 K [kg/m3] | mass density, 308.15 K [kg/m3] | refractive index, 298.15 K | refractive index, 303.15 K | refractive index, 308.15 K | speed of sound, 298.15 K [m/s] | viscosity, 298.15 K [mPa·s] | viscosity, 303.15 K [mPa·s] | viscosity, 308.15 K [mPa·s]
[1] | 1616 | 1607.5 | 1597.5 | – | – | – | 1033 | 0.875 | 0.831 | 0.791
[2] | – | – | – | 1.5036 | 1.5005 | 1.4978 | – | – | – | –

CCCCCCCCCCCCCC [tetradecane] + CCCCN(CCCC)CCCC
x2 = 0
Details | mass density, 298.15 K [kg/m3] | mass density, 303.15 K [kg/m3] | mass density, 308.15 K [kg/m3] | refractive index, 298.15 K | refractive index, 303.15 K | refractive index, 308.15 K | speed of sound, 298.15 K [m/s] | viscosity, 298.15 K [mPa·s] | viscosity, 303.15 K [mPa·s] | viscosity, 308.15 K [mPa·s]
[1] | 760.7 | 757 | 753.3 | – | – | – | 1315 | 2.032 | 1.827 | 1.653
[2] | – | – | – | 1.4282 | 1.426 | 1.4236 | – | – | – | –

ClC=C(Cl)Cl [trichloroethene] + CCCCN(CCCC)CCCC
Details | mass density, 298.15 K [kg/m3] | mass density, 303.15 K [kg/m3] | mass density, 308.15 K [kg/m3] | refractive index, 298.15 K | refractive index, 303.15 K | refractive index, 308.15 K | speed of sound, 298.15 K [m/s] | viscosity, 298.15 K [mPa·s] | viscosity, 303.15 K [mPa·s] | viscosity, 308.15 K [mPa·s]
[1], x2 = 0 | 1456.7 | 1447.1 | 1439.5 | – | – | – | 1028 | 0.595 | 0.571 | 0.549
[1], x2 = 0.0996 | 1299.3 | 1291.8 | 1284.4 | – | – | – | 1054 | 0.652 | 0.622 | 0.592
[1], x2 = 0.1953 | 1186.7 | 1180.1 | 1173.3 | – | – | – | 1084 | 0.713 | 0.675 | 0.637
[1], x2 = 0.2913 | 1098.3 | 1092.1 | 1086 | – | – | – | 1108 | 0.776 | 0.73 | 0.684
[1], x2 = 0.3902 | 1025.1 | 1019.6 | 1013.9 | – | – | – | 1129 | 0.842 | 0.788 | 0.734
[1], x2 = 0.4875 | 966.3 | 961 | 955.8 | – | – | – | 1151 | 0.909 | 0.846 | 0.783
[1], x2 = 0.5906 | 914.7 | 909.8 | 904.9 | – | – | – | 1170 | 0.978 | 0.907 | 0.835
[1], x2 = 0.6843 | 875 | 870.3 | 865.7 | – | – | – | 1187 | 1.041 | 0.962 | 0.882
[1], x2 = 0.7846 | 838.1 | 833.7 | 829.1 | – | – | – | 1205 | 1.105 | 1.018 | 0.93
[1], x2 = 0.8835 | 806.5 | 802.2 | 797.8 | – | – | – | 1227 | 1.167 | 1.071 | 0.976
[2], x2 = 0 | – | – | – | 1.4752 | 1.4722 | 1.469 | – | – | – | –
[2], x2 = 0.0996 | – | – | – | 1.4632 | 1.4604 | 1.4576 | – | – | – | –
[2], x2 = 0.1953 | – | – | – | 1.4563 | 1.453 | 1.4495 | – | – | – | –
[2], x2 = 0.2913 | – | – | – | 1.4502 | 1.4469 | 1.4436 | – | – | – | –
[2], x2 = 0.3902 | – | – | – | 1.4448 | 1.4417 | 1.4386 | – | – | – | –
[2], x2 = 0.4875 | – | – | – | 1.4402 | 1.4377 | 1.4352 | – | – | – | –
[2], x2 = 0.5906 | – | – | – | 1.437 | 1.4343 | 1.4317 | – | – | – | –
[2], x2 = 0.6843 | – | – | – | 1.4346 | 1.4315 | 1.4284 | – | – | – | –
[2], x2 = 0.7846 | – | – | – | 1.4318 | 1.4295 | 1.427 | – | – | – | –
[2], x2 = 0.8835 | – | – | – | 1.4298 | 1.4272 | 1.4246 | – | – | – | –

CCCCN(CCCC)CCCC [tributylamine] + CCN(CC)CC
Details | mass density, 298.15 K [kg/m3] | mass density, 303.15 K [kg/m3] | mass density, 308.15 K [kg/m3] | refractive index, 298.15 K | refractive index, 303.15 K | refractive index, 308.15 K | speed of sound, 298.15 K [m/s] | viscosity, 298.15 K [mPa·s] | viscosity, 303.15 K [mPa·s] | viscosity, 308.15 K [mPa·s]
[1], x1 = 0.1072 | 732 | 727.3 | 722.8 | – | – | – | 1143 | 0.433 | 0.411 | 0.388
[1], x1 = 0.2039 | 739.2 | 734.6 | 730.2 | – | – | – | 1160 | 0.491 | 0.464 | 0.438
[1], x1 = 0.3083 | 745.9 | 741.4 | 737.1 | – | – | – | 1179 | 0.567 | 0.533 | 0.499
[1], x1 = 0.4066 | 751.5 | 747.2 | 742.9 | – | – | – | 1196 | 0.643 | 0.602 | 0.561
[1], x1 = 0.5029 | 756.4 | 752.2 | 747.9 | – | – | – | 1210 | 0.719 | 0.672 | 0.625
[1], x1 = 0.5905 | 760.2 | 756 | 751.8 | – | – | – | 1221 | 0.801 | 0.746 | 0.688
[1], x1 = 0.6928 | 763.7 | 759.5 | 755.4 | – | – | – | 1232 | 0.899 | 0.833 | 0.767
[1], x1 = 0.7914 | 767.1 | 763 | 758.9 | – | – | – | 1236 | 1.003 | 0.923 | 0.844
[1], x1 = 0.8942 | 770.6 | 766.5 | 762.4 | – | – | – | 1246 | 1.118 | 1.026 | 0.934
[1], x1 = 1 | 773.9 | 769.2 | 765.7 | – | – | – | 1262 | 1.239 | 1.123 | 1.028
[2], x1 = 0.1072 | – | – | – | 1.4052 | 1.4031 | 1.4012 | – | – | – | –
[2], x1 = 0.2039 | – | – | – | 1.4104 | 1.4079 | 1.4054 | – | – | – | –
[2], x1 = 0.3083 | – | – | – | 1.4131 | 1.4116 | 1.4102 | – | – | – | –
[2], x1 = 0.4066 | – | – | – | 1.4164 | 1.4144 | 1.4122 | – | – | – | –
[2], x1 = 0.5029 | – | – | – | 1.4208 | 1.4178 | 1.4148 | – | – | – | –
[2], x1 = 0.5905 | – | – | – | 1.4218 | 1.4194 | 1.4169 | – | – | – | –
[2], x1 = 0.6928 | – | – | – | 1.4238 | 1.4213 | 1.4189 | – | – | – | –
[2], x1 = 0.7914 | – | – | – | 1.4256 | 1.423 | 1.4204 | – | – | – | –
[2], x1 = 0.8942 | – | – | – | 1.4265 | 1.4241 | 1.4217 | – | – | – | –
[2], x1 = 1 | – | – | – | 1.4276 | 1.4255 | 1.4228 | – | – | – | –
